The record followed here is paper PMC7180456, “Multitarget Anticancer Agents Based on Histone Deacetylase and Protein Kinase CK2 Inhibitors” (Molecules, 2020).

One experiment deals with Jurkat T-leukemia cells. Briefly: Annexin V-PI double staining, FACS. The class given is cell-based, human. To be noted: 10 µM and 30 µM, 24 h, comparison between compounds. How it is done: To confirm the pro-apoptotic activity of the studied inhibitors, Annexin V-PI double staining was addressed (Figure 7 down).
For cell death analyses, cells were stained with FITC-conjugated annexin V and propidium iodide (PI) using an apoptosis detection kit (BD Biosciences, San Jose, CA), according to the manufacturer’s instructions. In particular, 24 h after the addition of various concentration of CK2-HDAC inhibitors, Jurkat T-leukemia cells were centrifuged at 2,000 rpm, washed twice with 1x PBS, and incubated for 15 minutes in Annexin V binding buffer (BD Pharmingen, USA) containing 1/50 volume of FITC-conjugated Annexin V solution and PI (50 µg/mL). Then samples were diluted two times by appropriate volume of Annexin V binding buffer (BD Pharmingen, USA) and immediately measured on FL1/FL2 (FITC-PI) channels of FACScan flow cytometer (Becton Dickinson, USA). Analysis of the obtained results was carried out using the Cytomation Summit Software v3.1 (Cytomation Inc., USA).

Experiment [1] has as its system HL-60/adr (doxorubicin-resistant, MRP-1 overexpression). Briefly: Cytotoxicity, trypan blue exclusion assay, 24 h. Format: cell-based. To be noted: Homo sapiens, HL60/ADR. The text has this:
(§1) Taking into consideration the high abundance of CK2 kinase in leukemia and lymphomas, the ability of selected CK2-HDAC dual inhibitors to circumvent MDR was investigated in human leukemia cells of HL-60 line and its doxorubicin-resistant (HL-60/adr, MRP-1 overexpression) and vincristine-resistant (HL-60/vinc, P-gp overexpression) sublines.
(§2) Statistical significance was set at P ≤ 0.05.

Experiment [2] has as its system leukemia cells of HL-60 line. Briefly: Cytotoxicity, trypan blue exclusion assay, 24 h. To be noted: Homo sapiens. The class given is cell-based.
Source text: as §1, §2

The subject of experiment [3] is HL-60/vinc (vincristine-resistant, P-gp overexpression). Briefly: Cytotoxicity, trypan blue exclusion assay, 24 h. Format: cell-based. The note with it: Homo sapiens, HL60/vinc.
Source text: as §1, §2

A further experiment has as its target T1, human recombinant CK2α (Homo sapiens, UniProt P68400).
T1 construct: GST; made in house; host or cells: bacteria
The experiment can be described thus: CK2 inhibition, radiometric method with peptide substrate […]. Format: biochemical. The note with it: radiometric method, 20 µM ATP; read-out: Inhibitory activity IC50 on CK2. The procedure:
The activity towards human recombinant HDAC1 was tested using a fluorometric method. CK2 inhibitory activity was determined by a radiometric method, using a short peptide ([…]) as a substrate.
Recombinant human protein kinase GST-CK2 was produced in bacteria and purified as described elsewhere. […] The reaction buffer contained 20 µM [γ-32P] ATP (specific radioactivity 300–1000 cpm/pmol), 15 mM Mg^2+, 20 mM Tris–HCl pH 7.5, and 6 mM 2-mercaptoethanol. 10 µL of the assay mixture was spotted onto a square (1 cm/1 cm) of Whatman P81 paper and allowed to dry. Each square was immersed in cold 0.5% phosphoric acid, and washed three times during 10 min, allowed to dry and transferred into a vessel containing Opti-Phase liquid (scintillation solution) and radioactivity was quantified using a scintillation counter (MicroBeta, Perkin Elmer) by Cerenkov counting. All experiments were performed in triplicate. IC50 values were calculated using GraphPad Prism (version 4.0) software.

The test system of experiment [4] is HL-60, HL-60/adr and HL-60/vinc leukemia cells. The experiment can be described thus: DCFDA assay, hydrogen peroxide production. Format: cell-based, human. To be noted: 10 µM and 30 µM, 24 h. The source says:
To reveal potential mechanisms underlying this phenomenon, we studied the impact of the selected compounds on ROS production in both sensitive and MDR cell lines (Figure S8). […] As mitochondria are considered the main source of cellular superoxides, the next aim of our studies was to check whether CK2-HDAC inhibitors induce oxidative stress in tumor cells via depolarization of mitochondria, using the JC-1 assay. However, it was technically impossible to measure JC-1 accumulation on HL-60/adr and HL-60/vinc cells, because JC-1 is a substrate for these ABC-transporter proteins and is actively pumped out into extracellular medium.
Cellular ROS contents were measured by incubating control or drug-treated cells with fluorescent dyes dihydrodichlorofluorescein diacetate (DCFDA, detecting mainly H2O2) and dihydroethidium (DHE, O2^●−-specific) in concentrations of 10 μM at 37 °C for 30 minutes. After incubation with the dyes, cells were washed with PBS and immediately analyzed at FL1 (DCFDA) or FL2 channel (DHE) of FACSCalibur flow cytometer (BD Biosciences, San Jose, CA).

Setting [5] is: Table 2, trypan blue, 24 h, M ± SD, read-out: LC50 Values of Compounds for Cell Line, HL-60/adr.
Where [6] appears, read: supplement Table 4S, M±SD, read-out: LC50 values of compounds for cell line, HL-60/adr.
Setting [7] is: Table 2, trypan blue, 24 h, M ± SD, read-out: LC50 Values of Compounds for Cell Line, HL-60.
[8] abbreviates: supplement Table 4S, M±SD, read-out: LC50 values of compounds for cell line, HL-60.
Setting [9] is: Table 2, trypan blue, 24 h, M ± SD, read-out: LC50 Values of Compounds for Cell Line, HL-60/vinc.
Where [10] appears, read: supplement Table 4S, M±SD, read-out: LC50 values of compounds for cell line, HL-60/vinc.

Where two headings read alike, the source gives them in different places.

T1 sequence (P68400 whole entry): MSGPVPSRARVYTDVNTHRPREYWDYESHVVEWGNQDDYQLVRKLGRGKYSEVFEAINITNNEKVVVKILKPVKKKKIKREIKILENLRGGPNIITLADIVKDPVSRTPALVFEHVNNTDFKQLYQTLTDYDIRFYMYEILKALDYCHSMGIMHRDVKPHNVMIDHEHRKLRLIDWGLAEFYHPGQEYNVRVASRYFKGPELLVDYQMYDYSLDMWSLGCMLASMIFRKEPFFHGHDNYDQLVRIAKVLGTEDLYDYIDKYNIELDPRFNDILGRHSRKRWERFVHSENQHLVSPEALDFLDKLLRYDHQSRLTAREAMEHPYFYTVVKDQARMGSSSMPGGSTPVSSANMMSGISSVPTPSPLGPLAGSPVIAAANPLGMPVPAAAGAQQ

With `CN(C)c1nc2c(Br)c(Br)c(Br)c(Br)c2n1CCc1cn(CCC(=O)NO)nn1` [Compound 7c, N-Hydroxy-3-(4-(2-(4,5,6,7-tetrabromo-2-(dimethylamino)-1H-benzo[d]imidazol-1-yl)ethyl)-1H-1,2,3-triazol-1-yl)propanamide], the “number of annexin V-positive (apoptotic) cells” value in the experiment on Jurkat T-leukemia cells is “significant decrease”. The CC50 was 18.6 ± 2.09 µM in experiment [1] (setting [5]); 16.2 µM in experiment [1] (setting [6]); 24 ± 8.66 µM in experiment [2] (setting [7]); 7.67 µM in experiment [2] (setting [8]); 49.5 ± 9.47 µM in experiment [3] (setting [9]); 17.6 µM in experiment [3] (setting [10]). The IC50 (as a rule, the concentration that inhibits the measured activity by half) at human recombinant CK2α came out at 12.5 µM. The “impact on hydrogen peroxide production” value in experiment [4] was “hydrogen peroxide burst”.
As for `CN(C)c1nc2c(Br)c(Br)c(Br)c(Br)c2n1Cc1ccc(C(=O)NO)cc1` [Compound 19, N-Hydroxy-4-((4,5,6,7-tetrabromo-2-(dimethylamino)-1H-benzo[d]imidazol-1-yl)methyl)benzamide], the CC50 in experiment [1] (setting [5]) was 32.3 ± 5.32 µM; in experiment [1] (setting [6]), more than 30 µM; in experiment [2] (setting [8]), more than 30 µM; in experiment [3] (setting [9]), 21.7 ± 3.39 µM; in experiment [3] (setting [10]), 26.6 µM. Moreover, on human recombinant CK2α, the IC50 came to 7.15 µM.
On to `O=C(NO)c1ccc(Cn2nc3c(Br)c(Br)c(Br)c(Br)c3n2)cc1` [Compound 15a, N-Hydroxy-4-((tetrabromo-2H-benzo[d][1,2,3]triazol-2-yl)methyl)benzamide], for which the CC50 in experiment [1] (setting [5]) was 32.4 ± 3.44 µM; in experiment [1] (setting [6]), more than 30 µM; in experiment [2] (setting [7]), 34.4 ± 7.89 µM; in experiment [2] (setting [8]), more than 30 µM; in experiment [3] (setting [9]), 36.6 ± 4.74 µM; in experiment [3] (setting [10]), more than 30 µM. Also, at human recombinant CK2α, the IC50 came to 15 µM.
